From patent EP0571593B1, “NEW NON IONIC IODIZED AGENTS FOR X-RAY CONTRASTING, METHOD FOR PREPARING THEM AND GALENICAL COMPOSITIONS CONTAINING THEM” (CENTRO INVESTIGACION JUSTESA IMAGEN S.A., priority 1991, dated 1993)

Key:
Format in all cases: physicochemical
[1] = Iodine content
[2] = Viscosity of aqueous solutions; conditions: 30°C, 300mg I/ml
[3] = Osmolality of aqueous solutions; conditions: 300mg I/ml

For `COCC(=O)Nc1c(I)c(C(=O)NCC(=O)Nc2c(I)c(C(=O)N(C)CC(O)CO)c(I)c(C(=O)N(C)CC(O)CO)c2I)c(I)c(C(=O)NCC(O)CO)c1I` (stereo not shown) [EXAMPLE 1, N,N'-bis-(2,3-dihydroxypropyl)-N,N'-dimethyl-5-{3-[N-(2,3-dihydroxypropyl)carbamoyl]-5-methoxyacetamido-2,4,6-triiodobenzoylaminoacetamido}-2,4,6-triiodoisophthalamide], the “% Iodine” value [1] was 51,6%, the “Viscosity mPa s (30°C) at 300mg I/ml” value [2] was 7,2 mPa s and the “Osmolality mosm/kg at 300mg I/ml” value [3] was 310 mosm/kg.

With `CN(CC(O)CO)C(=O)c1c(I)c(NC(=O)CNC(=O)c2c(I)c(NC(=O)CO)c(I)c(C(=O)NCC(O)CO)c2I)c(I)c(C(=O)N(C)CC(O)CO)c1I` (stereo not shown) [EXAMPLE 2, N.N'-bis-(2,3-dihydroxypropyl)-N,N'-dimethyl-5-{3-[N-(2,3-dihydroxypropyl)carbamoyl]-5-hydroxyacetamido-2,4,6-triiodobenzoylaminoacetamido}-2,4,6-triiodoisophthalamide] the “% Iodine” value [1] was 52%, the “Viscosity mPa s (30°C) at 300mg I/ml” value [2] was 8,4 mPa s and the “Osmolality mosm/kg at 300mg I/ml” value [3] was 166 mosm/kg.

For `CN(C(=O)CNC(=O)c1c(I)c(NC(=O)CO)c(I)c(C(=O)NCC(O)CO)c1I)c1c(I)c(C(=O)NC(CO)C(O)CO)c(I)c(C(=O)NC(CO)C(O)CO)c1I` (stereo not shown) [EXAMPLE 3, N,N'-bis-(1-hydroxymethyl-2,3-dihydroxyprogyl)-5-{3[N-(2,3-dihydroxypropyl)carbamoyl]-5-hydroxyacetamido-2,4,6-triiodobenzoylaminoacetyl-N-methylamino}-2,4,6-triiodoisophthalamide], the “% Iodine” value [1] was 50,5%, the “Viscosity mPa s (30°C) at 300mg I/ml” value [2] was 9,3 mPa s and the “Osmolality mosm/kg at 300mg I/ml” value [3] was 184 mosm/kg.

With `COCC(=O)Nc1c(I)c(C(=O)NCC(=O)N(C)c2c(I)c(C(=O)NC(CO)C(O)CO)c(I)c(C(=O)NC(CO)C(O)CO)c2I)c(I)c(C(=O)NCC(O)CO)c1I` (stereo not shown) [EXAMPLE 4, N,N'-bis-(1-hydroxymethyl-2,3-dihydroxypropyl)-5-{3-(N-(2,3-dihydroxypropyl)carbamoyl]-5-methoxyacetamido-2,4,6-triiodobenzoylaminoacetyl-N-methylamino}-2,4,6-triiodo isophthalamide] the “% Iodine” value [1] was 50%, the “Viscosity mPa s (30°C) at 300mg I/ml” value [2] was 9,4 mPa s and the “Osmolality mosm/kg at 300mg I/ml” value [3] was 289 mosm/kg.

For `COCC(=O)Nc1c(I)c(C(=O)NCC(=O)Nc2c(I)c(C(=O)N(C)CC(O)CO)c(I)c(C(=O)N(C)CC(O)CO)c2I)c(I)c(C(=O)NC(CO)C(O)CO)c1I` (stereo not shown) [EXAMPLE 5, N,N'-bis-(2,3-dihydroxypropyl)-N,N'-dimethyl-5-{3-[N-(1-hydroxymethyl-2,3-dihydroxypropyl)carbamoyl]-5-methoxyacetamido-2,4,6-triiodobenzoylaminoacetamido}-2,4,6-triiodoisophthalamide], the “% Iodine” value [1] was 50,5%, the “Viscosity mPa s (30°C) at 300mg I/ml” value [2] was 10,2 mPa s and the “Osmolality mosm/kg at 300mg I/ml” value [3] was 119 mosm/kg.

In the case of `COCC(=O)Nc1c(I)c(C(=O)NCC(=O)Nc2c(I)c(C(=O)NCC(O)CO)c(I)c(C(=O)NCC(O)CO)c2I)c(I)c(C(=O)NC(CO)C(O)CO)c1I` (stereo not shown) [EXAMPLE 6, N,N'-bis-(2,3-dihydroxypropyl)-5-{3-[N-(1-hydroxymethyl-2,3-dihydroxypropyl)carbamoyl]-5-methoxyacetamido-2,4,6-triiodobenzoylaminoacetamido}-2,4,6-triiodoisochthalamide], the “% Iodine” value [1] is reported as 51,5%, the “Viscosity mPa s (30°C) at 300mg I/ml” value [2] is reported as 9,5 mPa s and the “Osmolality mosm/kg at 300mg I/ml” value [3] is reported as 116 mosm/kg.

In the case of `O=C(CN(CCO)C(=O)c1c(I)c(NC(=O)CO)c(I)c(C(=O)NCC(O)CO)c1I)Nc1c(I)c(C(=O)NCCO)c(I)c(C(=O)NCCO)c1I` (stereo not shown) [EXAMPLE 14, N,N'-bis-(2-hydroxyethyl)-5-{3-[N-(2,3-dihydroxypropyl)-carbamoyl]-5-hydroxyacetamido-2,4,6-triiodobenzoyl-N-(2, hydroxyethyl)aminoacetamido}-2,4,6-triiodoisophthalamide], the “% Iodine” value [1] is reported as 53,7%.

With `COCC(=O)Nc1c(I)c(C(=O)NCC(O)CO)c(I)c(C(=O)N(CCO)CC(=O)Nc2c(I)c(C(=O)NCCO)c(I)c(C(=O)NCCO)c2I)c1I` (stereo not shown) [EXAMPLE 17, N,N'-bis-(2-hydroxyethyl)-5-{3-[N-(2,3-dihydroxypropyl)carbamoyl]-5-methoxyacetamido-2,4,6-triodobenzoyl-N-(2-hydroxyethyl)aminoacetamido}-2,4,6-triiodoisophthalamide] the “% Iodine” value [1] was 53,2%.

With `O=C(CO)Nc1c(I)c(C(=O)NCC(=O)Nc2c(I)c(C(=O)NCC(O)CO)c(I)c(C(=O)NCC(O)CO)c2I)c(I)c(C(=O)NCC(O)CO)c1I` (stereo not shown) [EXAMPLE 18] the “% Iodine” value [1] was 53,1%.

In the case of `O=C(CO)Nc1c(I)c(C(=O)NCC(=O)Nc2c(I)c(C(=O)NC(CO)C(O)CO)c(I)c(C(=O)NC(CO)C(O)CO)c2I)c(I)c(C(=O)NCC(O)CO)c1I` (stereo not shown) [EXAMPLE 19, N,N'-bis-(1-hydroxymethyl-2,3-dihydroxypropyl)-5-{3-[N-(2,3-dihydroxypropyl)carbamoyl]-5-hydroxyacetamido-2,4,6-triiodobenzoylaminoacetamido}-2,4,6-triiodoisophthalamide], the “% Iodine” value [1] is reported as 51%.

With `COCC(=O)Nc1c(I)c(C(=O)NCC(=O)Nc2c(I)c(C(=O)NC(CO)C(O)CO)c(I)c(C(=O)NC(CO)C(O)CO)c2I)c(I)c(C(=O)NCC(O)CO)c1I` (stereo not shown) [EXAMPLE 20, N,N'-bis-(1-hydroxymethyl-2,3-dihydroxypropyl)-5-{3-[N-(2,3-dihydroxypropyl)carbamoyl]-5-methoxyacetamido-2,4,6-triiodobenzoylaminoacetamido}-2,4,6-triiodoisolphthalamide] the “% Iodine” value [1] was 50,5%.

With `COCC(=O)Nc1c(I)c(C(=O)NCC(O)CO)c(I)c(C(=O)N(C)CC(=O)Nc2c(I)c(C(=O)NC(CO)C(O)CO)c(I)c(C(=O)NC(CO)C(O)CO)c2I)c1I` (stereo not shown) [EXAMPLE 21, N,N'-bis-(1-hydroxymethyl-2,3-dihydroxypropyl)-5-{3-[N-(2,3-dihydroxypropyl)carbomoyl]-5-methoxyacetamido-2,4,6-triiodo-benzoyl-N-methylaminoacetamido}-2,4,6-triiodoisophthalamide] the “% Iodine” value [1] was 50%.

For `COCC(=O)Nc1c(I)c(C(=O)NCC(=O)N(C)c2c(I)c(C(=O)N(C)CC(O)CO)c(I)c(C(=O)N(C)CC(O)CO)c2I)c(I)c(C(=O)NCC(O)CO)c1I` (stereo not shown) [EXAMPLE 27, N,N'-bis-(2,3-dihydroxypropyl)-N,N'-dimethyl-5-{3-[N-(2,3-dihydroxypropyl)carbamoyl]-5-methoxyacetamido-2,4,6-triiodobenzoylaminoacetyl-N-methylamino}-2,4,6-triiodo isophthalamide], the “% Iodine” value [1] was 51,1%.

In the case of `COCC(=O)Nc1c(I)c(C(=O)NCC(=O)N(C)c2c(I)c(C(=O)NCC(O)CO)c(I)c(C(=O)NCC(O)CO)c2I)c(I)c(C(=O)NCC(O)CO)c1I` (stereo not shown) [EXAMPLE 28, N,N'-bis-(2,3-dihydroxypropyl)-5-{3-[N-(2,3-dihydroxypropyl)carbamoyl]-5-methoxyacetamido-2,4,6-triiodobenzoylaminoacetyl-N-methylamino}-2,4,6-triiodoisophthalamide], the “% Iodine” value [1] is reported as 51,6%.

For `CN(CC(=O)N(C)c1c(I)c(C(=O)N(CCO)CCO)c(I)c(C(=O)N(CCO)CCO)c1I)C(=O)c1c(I)c(NC(=O)CO)c(I)c(C(=O)NCC(O)CO)c1I` (stereo not shown) [EXAMPLE 29, N,N,N',N'-tetrakis-(2-hydroxyethyl)-5-{3-[N-(2,3-dihydroxypropyl)carbamoyl]-5-hydroxyacetamido-2,4,6-triiodobenzoyl-N-methylaminoacetyl-N-methylamino}-2,4,6-triiodoisophthalamide], the “% Iodine” value [1] was 51,1%.

For `COCC(=O)Nc1c(I)c(C(=O)NCC(O)CO)c(I)c(C(=O)N(C)CC(=O)N(C)c2c(I)c(C(=O)N(CCO)CCO)c(I)c(C(=O)N(CCO)CCO)c2I)c1I` (stereo not shown) [EXAMPLE 30, N,N,N',N', -tetrakis-(2-hydroxyethyl)-5-{3-[N-(2,3-dihydroxypropyl)carbamoyl]-5-methoxyacetamido-2,4,6-triiodobenzoyl-N -methylaminoacetyl-N-methylamino}-2,4,6-triiodo-isophthalamide], the “% Iodine” value [1] was 50,6%.

With `COCC(=O)Nc1c(I)c(C(=O)NCC(=O)Nc2c(I)c(C(=O)N(CCO)CCO)c(I)c(C(=O)N(CCO)CCO)c2I)c(I)c(C(=O)NCC(O)CO)c1I` (stereo not shown) [EXAMPLE 31, N,N,N',N'-tetrakis(2-hydroxyethyl)-5-{3-[N(2,3-dihydroxypropyl)carbamoyl]-5-methoxyacetamido-2,4,6-triiodobenzoylaminoacetamido}-2,4,6-triiodoisophthalamide] the “% Iodine” value [1] was 51,6%.

In the case of `COCC(=O)N(CCO)c1c(I)c(C(=O)NCC(O)CO)c(I)c(C(=O)N(CCO)CC(=O)N(CCO)c2c(I)c(C(=O)NCC(O)CO)c(I)c(C(=O)NCC(O)CO)c2I)c1I` (stereo not shown) [EXAMPLE 33, N,N'-bis-(2,3-dihydroxypropyl)-5-{3-[N-(2,3-dihydroxypropyl)carbamoyl]-5-methoxyacetyl-N-(2-hydroxyethyl)amino-2,4,6-triiodobenzoyl-N-(2-hydroxyethyl)aminoacetyl-N-(2-hydroxyethyl)amino)-2,4,6-triiodoisophthalamide], the “% Iodine” value [1] is reported as 48,2%.

In the case of `O=C(NCC(=O)N(CCO)c1c(I)c(C(=O)NCC(O)CO)c(I)c(C(=O)NCC(O)CO)c1I)c1c(I)c(C(=O)NCC(O)CO)c(I)c(N(CCO)C(=O)CO)c1I` (stereo not shown) [EXAMPLE 34, N,N'-bis-(2,3-dihydroxypropyl)-5-{3-[N-(2,3-dihydroxypropyl)carbamoyl]-5-hydroxyacetyl-N-(2-hydroxyethyl)amino-2,4,6-triiodobenzoylaminoacetyl-N-(2-hydroxyethyl)amino}-2,4,6-triiodoisophthalamide], the “% Iodine” value [1] is reported as 50%.
